Patent US20220396565A1 (Hoffmann-La Roche Inc., priority 2020, published 2022)
Counter-ions that a name gives are not always drawn. Like-named read-outs stand apart in the source and are kept apart here.

System: Acinetobacter baumannii ATCC17961
Assay: Antimicrobial susceptibility testing: 90% growth inhibitory concentration (IC90) determination, Iso-Sensitest broth
Assay type: cell-based
Experimental: The in vitro antimicrobial activity of the compounds was determined according to the following procedure:
The assay used a 10-points Iso-Sensitest broth medium to measure quantitatively the in vitro activity of the compounds against Acinetobacter baumannii ATCC17978 or ATCC17961.
Stock compounds in DMSO were serially twofold diluted (e.g. range from 10 to 0.02 μM final concentration) in 384 wells microtiter plates and inoculated with 49 μl the bacterial suspension in Iso-Sensitest medium to have a final cell concentration of ˜5×10^(5) CFU/ml in a final volume/well of 50 ul/well. Microtiter plates were incubated at 35±2° C.
Bacterial cell growth was determined with the measurement of optical density at k=600 nm each 20 minutes over a time course of 16 h. Growth inhibition was calculated during the logarithmic growth of the bacterial cells with determination of the concentration inhibiting 50% (IC50) and 90% (IC90) of the growth.
Table 1 provides the 90% growth inhibitory concentrations (IC90) in micromoles per liter of the compounds of present invention obtained against the strain Acinetobacter baumannii ATCC17978 or ATCC17961.

[1] = Acinetobacter baumannii, ATCC17961, 90% growth inhibitory concentration, Acinetobacter baumannii ATCC17961, Iso-Sensitest broth, read-out: ATCC 17961 IC90
[2] = Acinetobacter baumannii, ATCC17961, read-out: ATCC 17961 IC90

Row | SMILES | IC90 [1] | also measured
1 | COc1ccc(-c2cnc(C(=O)Nc3ccc(C(=O)N4CCN(C(=O)C5CCC(=O)NC5)CC4)c(Cl)c3)n2C)c(F)c1F (stereo not shown) [Example 125, N-[3-chloro-4-[4-(6-oxopiperidine-3-carbonyl)piperazine-1-carbonyl]phenyl]-5-(2,3-difluoro-4-methoxy-phenyl)-1-methyl-imidazole-2-carboxamide] | 110 nM | –
2 | CN(C)C1CN(C(=O)C2CCN(C(=O)c3ccc(NC(=O)c4ncc(-c5ccc(OC(F)F)c(F)c5F)n4C)cc3Cl)CC2)C1 [Example 43, N-[3-chloro-4-[4-[3-(dimethylamino)azetidine-1-carbonyl]piperidine-1-carbonyl]phenyl]-5-[4-(difluoromethoxy)-2,3-difluoro-phenyl]-1-methyl-imidazole-2-carboxamide trifluoioacetate] | 90 nM | –
3 | CN(C)CC(=O)N1CCN(C(=O)c2ccc(NC(=O)c3ncc(-c4ccc(OCF)c(F)c4F)n3C)cc2Cl)CC1 [Example 220, N-(3-chloro-4-(4-(dimethylglycyl)piperazine-1-carbonyl)phenyl)-5-(2,3-difluoro-4-(fluoromethoxy)phenyl)-1-methyl-1H-imidazole-2-carboxamide formate] | 40 nM | –
4 | COc1ccc(-c2cnc(C(=O)Nc3ccc(C(=O)N4CCC(NC(=O)C5CCNCC5)C4)c(Cl)c3)n2C)c(F)c1F (stereo not shown) [Example 110, N-[1-[2-chloro-4-[[5-(2,3-difluoro-4-methoxy-phenyl)-1-methyl-imidazole-2-carbonyl]amino]benzoyl]pyrrolidin-3-yl]piperidine-4-carboxamide formate] | 180 nM | –
5 | Cn1c(-c2ccc(OCC#N)c(F)c2F)cnc1C(=O)Nc1ccc(C(=O)N2CCN(C(=O)C3CNCC(O)C3)CC2)c(Cl)c1 (stereo not shown) [Example 214, N-(3-chloro-4-(4-(5-hydroxypiperidine-3-carbonyl)piperazine-1-carbonyl)phenyl)-5-(4-(cyanomethoxy)-2,3-difluorophenyl)-1-methyl-1H-imidazole-2-carboxamide 2,2,2-trifluoroacetate] | 70 nM | –
6 | COc1ccc(-c2cnc(C(=O)Nc3ccc(C(=O)N4CCC(C(=O)NC[C@H](C)N)CC4)c(Cl)c3)n2C)c(F)c1F [Example 32, N-[(2S)-2-aminopropyl]-1-[2-chloro-4-[[5-(2,3-difluoro-4-methoxy-phenyl)-1-methyl-imidazole-2-carbonyl]amino]benzoyl] piperidine-4-carboxamide] | 80 nM | –
7 | Cn1c(-c2ccc(OCF)c(F)c2Cl)cnc1C(=O)Nc1ccc(C(=O)N2CCN(C(=O)CC3(O)CCNCC3)CC2)c(Cl)c1 [Example 173, 5-[2-chloro-3-fluoro-4-(fluoromethoxy)phenyl]-N-[3-chloro-4-[4-[2-(4-hydroxy-4-piperidyl)acetyl]piperazine-1-carbonyl]phenyl]-1-methyl-imidazole-2-carboxamide formate] | 50 nM | –
8 | Cn1c(-c2ccc(OCC#N)c(F)c2Cl)cnc1C(=O)Nc1ccc(C(=O)N2CCN(C(=O)[C@H]3CCNC3)CC2)c(Cl)c1 [Example 253, 5-[2-chloro-4-(cyanomethoxy)-3-fluoro-phenyl]-N-[3-chloro-4-[4-[(3S)-pyrrolidine-3-carbonyl]piperazine-1-carbonyl]phenyl]-1-methyl-imidazole-2-carboxamide formate] | 50 nM | –
9 | COc1ccc(-c2cnc(C(=O)Nc3ccc(C(=O)N4CCN(C(=O)[C@@H]5C[C@](C)(O)CN5)CC4)c(Cl)c3)n2C)c(F)c1F [Example 232, N-[3-chloro-4-[4-[(2S,4S)-4-hydroxy-4-methyl-pyrrolidine-2-carbonyl]piperazine-1-carbonyl]phenyl]-5-(2,3-difluoro-4-methoxy-phenyl)-1-methyl-imidazole-2-carboxamide formate] | 90 nM | –
10 | Cn1c(-c2ccc(OC(F)F)c(F)c2F)cnc1C(=O)Nc1ccc(C(=O)N2CCC(C(=O)N[C@H]3[C@@H]4CNC[C@@H]43)CC2)c(Cl)c1 [Example 61, N-[(1S,5R)-3-azabicyclo[3.1.0]hexan-6-yl]-1-[2-chloro-4-[[5-[4-(difluoromethoxy)-2,3-difluoro-phenyl]-1-methyl-imidazole-2-carbonyl]amino]benzoyl] piperidine-4-carboxamide formate] | 60 nM | –
11 | COc1ccc(-c2cnc(C(=O)Nc3ccc(C(=O)N4CCC(NC(=O)CC5CCNC5)CC4)c(Cl)c3)n2C)c(F)c1F (stereo not shown) [Example 11, N-[3-Chloro-4-[4-[(2-pyrrolidin-3-ylacetyl)amino]piperidine-1-carbonyl]phenyl]-5-(2,3-difluoro-4-methoxy-phenyl)-1-methyl-imidazole-2-carboxamide formate] | – | IC90 [2]: 70 nM
12 | Cn1c(-c2ccc(OCC#N)c(F)c2F)cnc1C(=O)Nc1ccc(C(=O)N2CCNCC2)c(Cl)c1 [Example 14, N-[3-chloro-4-(piperazine-1-carbonyl)phenyl]-5-[4-(cyanomethoxy)-2,3-difluoro-phenyl]-1-methyl-imidazole-2-carboxamide] | 130 nM | –
13 | Cn1c(-c2ccc(OC(F)F)c(F)c2F)cnc1C(=O)Nc1ccc(C(=O)N2CCC(C(=O)NC[C@@H]3CCNC3)CC2)c(Cl)c1 [Example 47, 1-[2-chloro-4-[[5-[4-(difluoromethoxy)-2,3-difluoro-phenyl]-1-methyl-imidazole-2-carbonyl]amino]benzoyl]-N-[[(3R)-pyrrolidin-3-yl]methyl]piperidine-4-carboxamide trifluoroacetate] | 40 nM | –
14 | Cn1c(-c2ccc(OCC#N)c(F)c2F)cnc1C(=O)Nc1ccc(C(=O)N2CCN(C(=O)[C@@H]3NCC[C@@H]3O)CC2)c(Cl)c1 [Example 210, N-(3-chloro-4-(4-((2R,3S)-3-hydroxypyrrolidine-2-carbonyl)piperazine-1-carbonyl)phenyl)-5-(4-(cyanomethoxy)-2,3-difluorophenyl)-1-methyl-1H-imidazole-2-carboxamide formate] | 60 nM | –
15 | COc1ccc(-c2cnc(C(=O)Nc3ccc(C(=O)N4CCN(C(=O)[C@H]5CCNC[C@H]5O)CC4)c(Cl)c3)n2C)c(F)c1F [Example 229, N-[3-chloro-4-[4-[(3S,4S)-3-hydroxypiperidine-4-carbonyl]piperazine-1-carbonyl]phenyl]-5-(2,3-difluoro-4-methoxy-phenyl)-1-methyl-imidazole-2-carboxamide] | 90 nM | –
16 | Cn1c(-c2ccc(OC(F)F)c(F)c2F)cnc1C(=O)Nc1ccc(C(=O)N2CCC(C(=O)N3CC[C@@H](N)C3)CC2)c(Cl)c1 [Example 45, N-[4-[4-[(3R)-3-aminopyrrolidine-1-carbonyl]piperidine-1-carbonyl]-3-chloro-phenyl]-5-[4-(difluoromethoxy)-2,3-difluoro-phenyl]-1-methyl-imidazole-2-carboxamide trifluoroacetate] | 80 nM | –
17 | Cn1c(-c2ccc(OCC#N)c(F)c2F)cnc1C(=O)Nc1ccc(C(=O)N2CCN(CCNCC(N)=O)CC2)c(Cl)c1 [Example 287, N-[4-[4-[2-[(2-amino-2-oxoethyl)amino]ethyl]piper-azine-1-carbonyl]-3-chloro-phenyl]-5-[4-(cyanomethoxy)-2,3-difluoro-phenyl]-1-methyl-imidazole-2-carboxamide formate] | – | IC90 [2]: 140 nM
18 | Cn1c(-c2ccc(OC(F)F)c(F)c2F)cnc1C(=O)Nc1ccc(C(=O)N2CCC(C(=O)NC3CCNCC3)CC2)c(Cl)c1 [Example 94, 1-(2-chloro-4-(5-(4-(difluoromethoxy)-2,3-difluorophenyl)-1-methyl-1H-imidazole-2-carboxamido)benzoyl)-N-(piperidin-4-yl)piperidine-4-carboxamide formate] | 40 nM | –
19 | Cn1c(-c2ccc(OCF)c(F)c2Cl)cnc1C(=O)Nc1ccc(C(=O)N2CCN(C(=O)C[C@@H]3CCNC3)CC2)c(Cl)c1 [Example 146, 5-[2-chloro-3-fluoro-4-(fluoromethoxy)phenyl]-N-[3-chloro-4-[4-[2-[(3S)-pyrrolidin-3-yl]acetyl]piperazine-1-carbonyl]phenyl]-1-methyl-imidazole-2-carboxamide formate] | 40 nM | –
20 | COc1ccc(-c2cnc(C(=O)Nc3ccc(C(=O)N4CCN(C(=O)N[C@H]5CNC[C@@H]5O)CC4)c(C)c3)n2C)c(F)c1F [Example 285, 4-[4-[[5-(2,3-difluoro-4-methoxy-phenyl)-1-methyl-imidazole-2-carbonyl]amino]-2-methyl-benzoyl]-N-[(3S,4S)-4-hydroxypyrrolidin-3-yl]piperazine-1-carboxamide formate] | 100 nM | –
21 | COc1ccc(-c2cnc(C(=O)Nc3ccc(C(=O)N4CCN(C(=O)C5CCN(S(=O)(=O)CCN)CC5)CC4)c(Cl)c3)n2C)c(F)c1F [Example 242, N-[4-[4-[1-(2-aminoethylsulfonyl)pipe-ridine-4-carbonyl]piperazine-1-carbonyl]-3-chloro-phenyl]-5-(2,3-difluoro-4-methoxy-phenyl)-1-methyl-imidazole-2-carboxamide] | – | IC90 (90% growth inhibitory concentration, Acinetobacter baumannii ATCC17961, Iso-Sensitest broth, read-out: ATCC 17961 IC90): 90 nM
22 | COc1ccc(-c2cnc(C(=O)Nc3ccc(C(=O)N4CCC(NC(=O)CCN(C)C)CC4)c(Cl)c3)n2C)c(F)c1F [Example 101, N-[3-chloro-4-[4-[3-(dimethylamino)propanoylamino]piperidine-1-carbonyl]phenyl]-5-(2,3-difluoro-4-methoxy-phenyl)-1-methyl-imidazole-2-carboxamide formate] | 50 nM | –
